Key:
NMDA receptor = details: cited from earlier work
hippocampal neurones [1] = experiment: Acute modulation of NMDA (10 μM) calcium response by five-minute application of 1 μM test article; format: cell-based, Lister-Hooded rat; details: for Pre-treatment %ΔF/F / Pre-treatment [Ca2+]: initial two-minute NMDA (10 μM) application, before test article; for Response (% change): reduction of NMDA (10 μM) calcium response by 1 μM test article, positive = reduction; for Post-treatment %ΔF/F / Post-treatment [Ca2+]: second two-minute NMDA (10 μM) application after five minutes of 1 μM test article
Experimental: (§1) Standard primary hippocampal cultures were prepared from Lister-Hooded rat pups (1-3 days old), euthanised by cervical dislocation, in accordance with Home Office and institute regulations. The brain was quickly removed, hippocampi dissected out and placed in ice-cold filtered HEPES buffered solution (HBS, composition in mM: NaCl 130; KCl 5.4; CaCl2 1.8; MgCl2 1.0; HEPES 10; glucose 25). Micro-dissection was performed to remove blood vessels and excess, non-hippocampal, tissue.
(§2) The hippocampal tissue was thinly chopped and placed in 1 mg/ml type X and XIV protease solution (40 minutes). The tissue was then washed in HBS and triturated several times using graded fire-polished glass Pasteur pipettes. Following centrifugation, the supernatant was removed and the remaining tissue pellet re-suspended in tissue culture medium (90% Minimum Essential Medium with 10% foetal bovine serum and 2 mM L-glutamine). The tissue was stored at standard conditions: in a humidified incubator at 37° C. and in 5% CO2, and re-centrifuged.
(§3) Excess medium was removed and the tissue pellet re-suspended in culture medium for plating. A drop of cell suspension was placed on the centre of a 35 mm culture dish, coated with poly-L-lysine and incubated at 37° C. for 1 hour. Following this, a further 2 ml of tissue culture medium was gently added to each dish and the culture kept in a humidified incubator (37° C.; 5% CO2).
(§4) Cultures were allowed to mature for 2 days before replacement of MEM with Neurobasal Medium, supplemented with 2% B27, 2 mM L-glutamine, and 25 μM L-glutamate. Culture dishes were used for imaging at 5-10 days in vitro.
(§5) For calcium imaging experiments, hippocampal cultures were washed with HBS at room temperature and loaded with the cell-permeable fluorescent calcium indicator Fura-2-AM (10 μM) for 1 hour in the dark.
(§6) The sodium channel blocker tetrodotoxin (TTX) was added to all perfusion media, to avoid spontaneous cell firing and transmitter release, ensuring only post-synaptic effects were visualised.
(§7) Cultures were perfused with HBS or low Mg^2+HEPES buffered solution for experiments involving NMDA (composition in mM: NaCl 130; KCl 5.4; CaCl2 1.8; MgCl2 0.1; HEPES 10; glucose 25), at a rate of 1-2 ml/min, using a gravity perfusion system.
(§8) A suitable field of cells was identified under the microscope and a greyscale transmission image visualised and captured using Oracal software. A Xenon lamp, which gave a single wavelength of light, was used to expose the cells to 350 nm and 380 nm, specified by the monochromator.
(§9) The ratio of these wavelengths, which is directly proportional to intracellular calcium levels in the cells, was plotted after background fluorescence subtraction.
(§10) The data that were produced were pooled and means for each experiment determined.
(§11) A stock of NMDA (10 mM) was made up in double-distilled water and the necessary concentrations made up in HBS. NMDA (with 100 μM glycine) was applied in every experiment to categorically distinguish between neuronal and glial cells in the image obtained.
The acute modulatory effect of calcium homeostasis was assessed by comparing an initial two-minute application of NMDA (10 μM) with a subsequent two-minute application of NMDA (10 μM). The subsequent application of the NMDA followed a five minute application of 1 μM sample.
(§12) Fluorescent units were converted into %ΔF/F. F is defined as an average of five baseline values before drug application. The value for %ΔF/F is therefore the percentage change in the […] by the average baseline value before drug application.
(§13) All experiments were performed a minimum of three times, each on neurones from a different culture. Only changes in fluorescence >0.1 ratio units were considered as a response. Data were exported to Excel and statistical analysis performed using Prism. Normality tests confirmed absence of normal distribution of data. […]

hippocampal neurones [2] = experiment: Intracellular calcium ion concentration after overnight incubation with 1 μM test article; format: cell-based, Lister-Hooded rat; details: for Concentration of intracellular Ca2+ Response (Post-Pre): overnight incubation with 1 μM test article at 37° C., 5% CO2; for Change from control (%): overnight incubation with 1 μM test article, control = naïve culture dishes, minus = reduction
Experimental: as §1, §2, §3, §4, §5, §6, §7, §8, §9, §10
(§14) To assess the effects of the test articles under more realistic chronic treatment regimes, cells were incubated overnight with 1 μM sample and responses to increasing doses of NMDA assessed (1, 10 & 100 μM).
as §12
All experiments were performed a minimum of three times, each on neurones from a different culture. Only changes in fluorescence >0.1 ratio units were considered as a response. […]

hippocampal neurones [3] = experiment: Response to increasing doses of NMDA after overnight incubation with 1 μM test article; format: cell-based, Lister-Hooded rat
Experimental: as §1, §2, §3, §4, §5, §6, §7, §8, §9, §10, §11, §14, §12, §13

hippocampal neurones [4] = experiment: Acute effect on NMDA calcium ion response following overnight incubation with test article; format: cell-based, Lister-Hooded rat; details: for Response (% change): overnight incubation plus acute 1 μM test article, NMDA 10 μM, positive = reduction, minus = increase; for Post-treatment %ΔF/F / Post-treatment [Ca2+] / Pre-treatment %ΔF/F / Pre-treatment [Ca2+]: overnight incubation with 1 μM test article; for Post-treatment %ΔF/F / Post-treatment [Ca2+]: NMDA 10 μM after 5 minute application of 1 μM same test article; for Pre-treatment %ΔF/F / Pre-treatment [Ca2+]: NMDA 10 μM for 2 minutes, before acute application
Experimental: as §1, §2, §3, §4, §5, §6, §7, §8, §9, §10, §11
In order to assess whether the acute modulatory effects are altered by overnight incubation, the cells were incubated overnight with the 1 μM sample and assessed by comparing an initial two-minute application of NMDA (10 μM) with a subsequent two-minute application of NMDA (10 μM). The subsequent application of the NMDA followed a five minute application of 1 μM test article.
as §12
All experiments were performed a minimum of three times, each on neurones from a different culture. Only changes in fluorescence >0.1 ratio units were considered as a response. Data were exported to Excel and statistical analysis performed using Prism. […]

hippocampal neurones [5] = experiment: Effect of five-minute application of 1 μM test article on intracellular calcium levels (calcium imaging, Fura-2-AM); format: cell-based, Lister-Hooded rat; details: for Concentration of intracellular Ca2+ Post-treatment: after five-minute application of 1 μM test article; for Fura-2 350/380 nm ratio, pre-treatment: baseline before five-minute application of 1 μM test article; for %ΔF/F / Concentration of intracellular Ca2+ Response (Post-Pre): five-minute application of 1 μM test article
Experimental: as §1, §2, §3, §4, §5, §6, §7, §8, §9, §10
In order to test the regulation of calcium homeostasis in the presence of the test article, the effects were measured in response to a five-minute application of 1 μM sample.
as §12
All experiments were performed a minimum of three times, each on neurones from a different culture. Only changes in fluorescence >0.1 ratio units were considered as a response. Data were exported to Excel and statistical analysis performed using Prism. Normality tests confirmed absence of normal distribution of data. Therefore, a Mann Whitney U test was utilised for paired comparisons and for multiple group comparisons a Kruskal-Wallis test with either a Dunn's or Mann Whitney post-test used.
The effects of the essentially pure cannabinoids, the cannabinoid-containing plant extracts and the cannabinoid-ratioed comparators were assessed to investigate the responses of the neurones to these different forms of cannabinoid.

[6] = system: neuronal cultures exposed to glutamate; details: in vitro, isolated or synthetic cannabinoid; cited from earlier work
[7] = isolated or synthetic CBD; cited from earlier work

O=C(O)[C@@H]1C[C@H](CP(=O)(O)O)CCN1 (racemic) [Selfotel]
Mortality rate versus placebo (NMDA receptor; stroke patients): trends towards a higher mortality rate

CN1CC[C@@]23CCCC[C@@H]2[C@@H]1Cc1ccc(O)cc13 [Dextrorphan]
Side effects (NMDA receptor; human subjects): hallucinations, agitation and hypotension

CCCCCc1cc(O)c2c(c1)OC(C)(C)[C@@H]1CCC(C)=C[C@@H]21 [P-THC, tetrahydrocannabinol]
Pre-treatment %ΔF/F (hippocampal neurones [1]): 93.69%
Pre-treatment [Ca2+] (hippocampal neurones [1]): 0.741
Response (% change) (hippocampal neurones [1]): 19.6%
Response (% change) (hippocampal neurones [1]; listed as essentially pure THC): lowest amount of reduction
Post-treatment %ΔF/F (hippocampal neurones [1]): 63.81%
Post-treatment [Ca2+] (hippocampal neurones [1]): 0.596
Concentration of intracellular Ca2+ Response (Post-Pre) (hippocampal neurones [2]): 0.826
Change from control (%) (hippocampal neurones [2]): 6.2%
Change from control (%) (hippocampal neurones [2]; listed as essentially pure THC): increase
%ΔF/F (hippocampal neurones [3]; 1 μM NMDA): 62.24%
Concentration of intracellular Ca2+ Post-treatment (hippocampal neurones [3]; 1 μM NMDA): 0.522
Concentration of intracellular Ca2+ Pre-treatment (hippocampal neurones [3]; 1 μM NMDA): 0.839
Concentration of intracellular Ca2+ Response (Post-Pre) (hippocampal neurones [3]; 1 μM NMDA): −0.317
Concentration of intracellular Ca2+ Response (Post-Pre) (hippocampal neurones [3]; 1 μM NMDA, listed as essentially pure THC): did not reduce the concentration of calcium ions as much as the others
%ΔF/F (hippocampal neurones [3]; 10 μM NMDA): 57.50%
Concentration of intracellular Ca2+ Post-treatment (hippocampal neurones [3]; 10 μM NMDA): 0.498
Concentration of intracellular Ca2+ Pre-treatment (hippocampal neurones [3]; 10 μM NMDA): 0.866
Concentration of intracellular Ca2+ Response (Post-Pre) (hippocampal neurones [3]; 10 μM NMDA): −0.368
%ΔF/F (hippocampal neurones [3]; 100 μM NMDA): 200.35%
Concentration of intracellular Ca2+ Post-treatment (hippocampal neurones [3]; 100 μM NMDA): 1.897
Concentration of intracellular Ca2+ Pre-treatment (hippocampal neurones [3]; 100 μM NMDA): 0.947
Concentration of intracellular Ca2+ Response (Post-Pre) (hippocampal neurones [3]; 100 μM NMDA): 0.950
Response (% change) (hippocampal neurones [4]): −28.5%
Post-treatment %ΔF/F (hippocampal neurones [4]): 38.93%
Post-treatment [Ca2+] (hippocampal neurones [4]): 0.487
Pre-treatment %ΔF/F (hippocampal neurones [4]): 46.53%
Pre-treatment [Ca2+] (hippocampal neurones [4]): 0.379
Concentration of intracellular Ca2+ Post-treatment (hippocampal neurones [5]): 0.588
Fura-2 350/380 nm ratio, pre-treatment (hippocampal neurones [5]): 0.363
%ΔF/F (hippocampal neurones [5]): 56.38%
Concentration of intracellular Ca2+ Response (Post-Pre) (hippocampal neurones [5]): 0.225
Prevention of glutamate toxicity [6]: prevented to some extent

C=C(C)[C@@H]1CCC(C)=C[C@H]1c1c(O)cc(CCCCC)cc1O [P-CBD, cannabidiol]
Pre-treatment %ΔF/F (hippocampal neurones [1]): 91.70%
Pre-treatment [Ca2+] (hippocampal neurones [1]): 0.722
Response (% change) (hippocampal neurones [1]): 58.2%
Response (% change) (hippocampal neurones [1]; listed as essentially pure CBD): far greater reduction
Post-treatment %ΔF/F (hippocampal neurones [1]): 32.91%
Post-treatment [Ca2+] (hippocampal neurones [1]): 0.302
Concentration of intracellular Ca2+ Response (Post-Pre) (hippocampal neurones [2]): 0.893
Change from control (%) (hippocampal neurones [2]): 13.2%
%ΔF/F (hippocampal neurones [3]; 1 μM NMDA): 43.80%
Concentration of intracellular Ca2+ Post-treatment (hippocampal neurones [3]; 1 μM NMDA): 0.410
Concentration of intracellular Ca2+ Pre-treatment (hippocampal neurones [3]; 1 μM NMDA): 0.933
Concentration of intracellular Ca2+ Response (Post-Pre) (hippocampal neurones [3]; 1 μM NMDA): −0.523
%ΔF/F (hippocampal neurones [3]; 10 μM NMDA): 53.54%
Concentration of intracellular Ca2+ Post-treatment (hippocampal neurones [3]; 10 μM NMDA): 0.489
Concentration of intracellular Ca2+ Pre-treatment (hippocampal neurones [3]; 10 μM NMDA): 0.913
Concentration of intracellular Ca2+ Response (Post-Pre) (hippocampal neurones [3]; 10 μM NMDA): −0.424
%ΔF/F (hippocampal neurones [3]; 100 μM NMDA): 141.57%
Concentration of intracellular Ca2+ Post-treatment (hippocampal neurones [3]; 100 μM NMDA): 1.289
Concentration of intracellular Ca2+ Pre-treatment (hippocampal neurones [3]; 100 μM NMDA): 0.910
Concentration of intracellular Ca2+ Response (Post-Pre) (hippocampal neurones [3]; 100 μM NMDA): 0.379
Response (% change) (hippocampal neurones [4]): −68.6%
Response (% change) (hippocampal neurones [4]; listed as essentially pure CBD): increased the concentration to a large extent
Post-treatment %ΔF/F (hippocampal neurones [4]): 71.97%
Post-treatment [Ca2+] (hippocampal neurones [4]): 0.715
Pre-treatment %ΔF/F (hippocampal neurones [4]): 52.42%
Pre-treatment [Ca2+] (hippocampal neurones [4]): 0.424
Concentration of intracellular Ca2+ Post-treatment (hippocampal neurones [5]): 1.172
Fura-2 350/380 nm ratio, pre-treatment (hippocampal neurones [5]): 0.805
%ΔF/F (hippocampal neurones [5]): 45.45%
Concentration of intracellular Ca2+ Response (Post-Pre) (hippocampal neurones [5]): 0.367
Prevention of glutamate toxicity [6]: prevented to some extent
Difference between treated and placebo treated animals [7]: failed to find a difference

Reference: patent US8673368B2, “Cannabinoid-containing plant extracts as neuroprotective agents” (GW Pharma Limited, priority 2006, dated 2014)
